{"source": "paper PMC11009648", "about": "“Development of an orally bioavailable mSWI/SNF ATPase degrader and acquired mechanisms of resistance in prostate cancer” (Proceedings of the National Academy of Sciences of the …, 2024)", "key": {"[1]": {"system": "proteome of VCaP cells (SMARCA2, SMARCA4, PBRM1)", "assay": "TMT mass spectrometry proteomics of VCaP cells", "assay_type": "cell-based, human", "procedure": "Cells were plated at 5 × 10^6 cells per well in a 6-well plate overnight prior to treatment with DMSO, 100 nM AU-24118, or 1 μM AU-15330 for 2 h. Whole cell lysates were prepared in RIPA buffer (Thermo Fisher) supplemented with tablets of cOmpleteTM protease inhibitor cocktail (Sigma-Aldrich). For each condition, 75 µg of total protein was labeled with TMT isobaric Label Reagent (Thermo Fisher) according to the manufacturer’s protocol and subjected to 12 fractions of liquid chromatography–MS (LC–MS)/MS analysis."}, "[2]": {"assay": "In vivo pharmacokinetics in rats", "conditions": "plasma; for Cmax: read-out: Cmax/C0", "text": "(§1) All experimental procedures relating to animal care, handling, and treatment were approved by the Institutional Animal Ethics Committee of Aurigene Oncology Ltd. based on the Committee for Control and Supervision of Experiments on Animals guidelines. Animals were included for experimentation after 1 wk of acclimatization to standard laboratory conditions and were provided with reverse osmosis-treated water and rodent pellet diet ad libitum.\n(§2) The pharmacokinetic profile of AU-24118 was studied in both mice and rats. For assessment of oral bioavailability, AU-24118 was administered by intravenous (i.v.) and oral (p.o.) routes at 1 mg/kg and 30 mg/kg doses, respectively (n = 3). For the oral arm, AU-24118 was administered as a solution formulation in 10% PEG200, 50% of 20% D-α-Tocopherol polyethylene glycol 1000 succinate and 40% of 1% Tween-80 in water while AU-24118 was formulated in 2% DMA and 10% HPβCD in saline (qs) for the intravenous administration.\n(§3) Concentrations of AU-24118 were determined in plasma samples using a nonvalidated (fit for purpose) LC–MS/MS method in positive Multiple Reaction Monitoring mode with transition pair of m/z: 633.11→344.00. Either Carbamazepine (with a transition pair of m/z: 237.07→194.10) or Telmisartan (with a transition pair of m/z: 515.16→276.00) were used as internal standards. Sample processing was carried out by protein precipitation followed by evaporation method. Compound concentrations were calculated using Analyst® software 1.7.2 with linear/quadratic regression algorithm (with 1/×2 weighting factor) over a quantification range of 1 ng/mL to 2,500 ng/mL with the low and high ends of this range defining the lower limit of quantitation and upper limit of quantitation, respectively."}, "[3]": {"system": "SMARCA4, PBRM1 and SMARCA2 in 22Rv1-AUR-3 xenografts", "assay": "22Rv1-AUR-3 xenograft pharmacodynamics study", "conditions": "5 d; AU-24118 15 mg/kg oral gavage three times per week; zosuquidar 40 mg/kg i.p.", "experimental": "(§4) Lysates were prepared using radioimmunoprecipitation assay buffer (Thermo Fisher) with cOmpleteTM protease inhibitor cocktail tablets (Sigma-Aldrich) added. Total protein for each sample was determined using the DC Protein Assay (Bio-Rad) according to the manufacturer’s instructions. A standardized quantity of protein was resolved using NuPAGE Tris-Acetate Protein Gel (3 to 8%) (Thermo Fisher) or NuPAGE Bis-Tris Protein Gel (4 to 12%) (Thermo Fisher) and probed with primary antibodies as indicated. Following incubation with secondary antibodies conjugated with horseradish peroxidase, membranes were imaged on an Odyssey Fc Imager (LiCOR Biosciences).\nFor the 22Rv1-AUR-3 model, bilateral subcutaneous dorsal flank tumors were established by injecting 1 × 10^6 cells suspended in a 1:1 mixture of serum-free medium and Matrigel (BD Biosciences). Once tumors reached an average volume of 100 mm^3, mice were randomized and treated with either 60 mg/kg AU-15330 by retro-orbital vein injection 3 times every other day and with or without 10 mg/kg, 20 mg/kg, or 40 mg/kg of zosuquidar by intraperitoneal injection daily for 5 d per week. […] Animals harboring tumors approaching that size were immediately killed. All in vivo studies were approved by the U-M IACUC."}, "22Rv1 AUR-3 cells": {"system": "22Rv1 AUR-3 cells", "assay": "CellTiter-Glo cell viability assay in AU-15330-resistant 22Rv1 AUR-3 cells (ABCB1 overexpression)", "assay_type": "cell-based, human", "text": "The rising importance of the mSWI/SNF complex as a therapeutic target and the success ([32], [33]) of developing next-generation PROTAC degraders targeting the mSWI/SNF complex prompted us to proactively study potential resistance mechanisms that cancer cells may develop in response to this class of compounds. To achieve this, we cultured 22Rv1 cells in either DMSO or a lethal dose of AU-15330 for 1 mo, refreshing the drug twice a week, until resistant cells emerged. Upon obtaining a population of resistant cells, we unbiasedly characterized the genomic and transcriptomic alterations using whole-exome sequencing and bulk RNA sequencing (RNA-seq), respectively (Fig. 3A).\nCells were seeded onto 96-well plates in appropriate culture media and allowed to adhere overnight prior to treatment. The next day, a nine-point serial dilution of the compounds was prepared and added to the plates. After treatment, the cells were then incubated for an additional 5 d. On the last day of treatment, the CellTiter-Glo cell viability assay (Promega) was then executed in accordance with the manufacturer’s guidelines. The signal (luminescence) from each well was determined using an Infinite M1000 Pro plate reader (Tecan). Relative viability was determined by dividing the signal from each well by the average of the control condition in each experiment. Finally, the data were analyzed and plotted using GraphPad Prism."}, "[4]": {"system": "SMARCA4, SMARCA2 and PBRM1 in 22Rv1 AUR-2 cells", "assay": "Immunoblot of target degradation in 22Rv1 AUR-2 cells", "assay_type": "cell-based, human", "conditions": "4 h, AU-15330 1 µM, AU-24118 0.1 µM", "experimental": "as §4"}, "[5]": {"assay": "In vivo pharmacokinetics in mice", "conditions": "plasma; for Cmax: read-out: Cmax/C0", "text": "as §1, §2, §3"}, "[6]": {"system": "SMARCA4 (BRG1) and PBRM1 in VCaP cells", "assay": "Immunoblot of target degradation in VCaP cells", "assay_type": "cell-based, human", "conditions": "4 h, identical treatment conditions", "experimental": "as §4"}, "[7]": {"system": "mutant forms of SMARCA4 in HEK293 cells", "assay": "Immunoblot of overexpressed flag-tagged mutant SMARCA4 in HEK293 cells", "assay_type": "cell-based, human", "conditions": "24 h treatment", "text": "GFP-SMARCA4 (Addgene, 65391) was used for the SMARCA4 mutation clone. The pLVX-TetOne-Puro-hAXL (Addgene, 124797) backbone was used as a starting point prior to undergoing a series of modifications. The endogenous target gene was removed, and a multiple cloning site (MCS) was inserted downstream of the endogenous promoter. Custom gblocks containing Flag-tagged WT SMARCA4 were synthesized (Integrated DNA Technologies, IDT) and inserted into the MCS. Subsequently, custom gblocks containing SMARCA4-N1540S, SMARCA4-I1551del, or SMARCA4-F1485S were inserted to replace the respective portion of WT SMARCA4. Finally, the TRE3G promoter was replaced with hPGK.\nHEK293 cells were seeded overnight and transfected with Lipofectamine 3,000 (Thermo Fisher) according to the manufacturer’s protocol. Media were changed 8 h post transfection and incubated for 48 h prior to conducting further analyses."}, "[8]": {"conditions": "mouse, iv, CD1 Mice, I.V. 1mg/kg"}, "[9]": {"conditions": "mouse, po, CD1 Mice, P.O. 30mg/kg"}, "[10]": {"conditions": "mouse, mice, oral, 10mg/kg, dose escalation (Fig. 1G)"}, "[11]": {"conditions": "mouse, mice, oral, 30mg/kg, dose escalation (Fig. 1G)"}}, "note": "pIC50: −log10 of the molar value.", "data": [{"compound": "Nc1nnc(-c2ccccc2O)cc1-c1ccc(N2CCC(N3CCC(c4ccc(OC5CCC(=O)NC5=O)cc4)CC3)CC2)cc1", "note": "(stereo not drawn) [AU-24118]", "values": [{"measurement": "selectivity of degradation, MS-based proteomics", "setting": "[1]; VCaP cells, 100 nM AU-24118, 2 h", "value": "selectively degraded SMARCA2, SMARCA4, and PBRM1"}, {"measurement": "degradation of IMiD neosubstrates, proteomics", "setting": "[1]; human cell line (VCaP)", "value": "not found to degrade any canonical immunomodulatory imide drug (IMiD) neosubstrates such as IKZF1, IKZF3, and GSPT1"}, {"measurement": "bioavailability", "setting": "[2]; Wistar, rat, oral, rats, i.v. 1 mg/kg, p.o. 30 mg/kg, read-out: Oral bioavailability (%F)", "value": 16.3, "unit": "%"}, {"measurement": "AUC(0-inf)", "setting": "[2]; iv, Wistar Rat, I.V. 1mg/kg", "value": 0.756, "unit": "µg·h/mL"}, {"measurement": "AUC(0-t)", "setting": "[2]; iv, Wistar Rat, I.V. 1mg/kg", "value": 0.67, "unit": "µg·h/mL"}, {"measurement": "half-life", "setting": "[2]; iv, Wistar Rat, I.V. 1mg/kg, read-out: Beta t1/2 (converted)", "value": 8.02, "unit": "h"}, {"measurement": "clearance", "setting": "[2]; iv, Wistar Rat, I.V. 1mg/kg, read-out: CI (Clearance)", "value": 1.32, "unit": "L/h/kg"}, {"measurement": "Cmax", "setting": "[2]; iv, Wistar Rat, I.V. 1mg/kg", "value": 0.0962, "unit": "µg/mL"}, {"measurement": "Vd", "setting": "[2]; iv, Wistar Rat, I.V. 1mg/kg, read-out: Vdss", "value": 13.3, "unit": "L/kg"}, {"measurement": "AUC(0-t)", "setting": "[2]; po, Wistar Rat, P.O. 30mg/kg", "value": 3.28, "unit": "µg·h/mL"}, {"measurement": "Cmax", "setting": "[2]; po, Wistar Rat, P.O. 30mg/kg", "value": 0.184, "unit": "µg/mL"}, {"measurement": "degradation of target proteins in tumors, immunoblot", "setting": "[3]", "value": "mild degradation of its target proteins"}, {"measurement": "sensitivity of AUR-3 cells versus WT", "setting": "22Rv1 AUR-3 cells; 22Rv1 AUR-3 cells (Fig. S5 E and F)", "value": "dramatically less sensitive"}, {"measurement": "pIC50", "setting": "22Rv1 AUR-3 cells; Homo sapiens, 22Rv1, Fig. S5F, 22Rv1 AUR-3", "value": 6.34}, {"measurement": "degradation of SMARCA2 and PBRM1, immunoblot", "setting": "[4]", "value": "able to degrade SMARCA2 and PBRM1"}, {"measurement": "degradation of SMARCA4, immunoblot", "setting": "[4]", "value": "unable to degrade SMARCA4"}, {"measurement": "bioavailability", "setting": "[5]; CD1, mouse, oral, mice, i.v. 1 mg/kg, p.o. 30 mg/kg, read-out: Oral bioavailability (%F)", "value": 33.4, "unit": "%"}, {"measurement": "AUC(0-inf)", "setting": "[5]; [8]", "value": 1.68, "unit": "µg·h/mL"}, {"measurement": "AUC(0-t)", "setting": "[5]; [8]", "value": 1.63, "unit": "µg·h/mL"}, {"measurement": "half-life", "setting": "[5]; mouse, iv, CD1 Mice, I.V. 1mg/kg, read-out: Beta t1/2 (converted)", "value": 4.76, "unit": "h"}, {"measurement": "clearance", "setting": "[5]; mouse, iv, CD1 Mice, I.V. 1mg/kg, read-out: CI (Clearance)", "value": 0.602, "unit": "L/h/kg"}, {"measurement": "Cmax", "setting": "[5]; [8]", "value": 0.443, "unit": "µg/mL"}, {"measurement": "Vd", "setting": "[5]; mouse, iv, CD1 Mice, I.V. 1mg/kg, read-out: Vdss", "value": 3.3, "unit": "L/kg"}, {"measurement": "AUC(0-t)", "setting": "[5]; [9]", "value": 16.3, "unit": "µg·h/mL"}, {"measurement": "Cmax", "setting": "[5]; [9]", "value": 1.03, "unit": "µg/mL"}, {"measurement": "Tmax", "setting": "[5]; [10]", "value": 6, "unit": "h"}, {"measurement": "Cmax", "setting": "[5]; [10]", "value": 0.345, "unit": "µg/mL"}, {"measurement": "AUC(0-t)", "setting": "[5]; [11]", "value": 14.7, "unit": "µg·h/mL"}, {"measurement": "Tmax", "setting": "[5]; [11]", "value": 3, "unit": "h"}, {"measurement": "Cmax", "setting": "[5]; [11]", "value": 1.19, "unit": "µg/mL"}, {"measurement": "Tmax", "setting": "[5]; mouse, mice, oral, 100mg/kg, dose escalation (Fig. 1G)", "value": 4, "unit": "h"}, {"measurement": "degradation of SMARCA4 and PBRM1, immunoblot", "setting": "[6]", "value": "comparable degradation efficacy of SMARCA4 and PBRM1 to AU-15330"}, {"measurement": "degradation of overexpressed mutant SMARCA4, immunoblot", "setting": "[7]", "value": "resistant to degradation"}]}]}
